Data on 13 compounds can be found in patent US12091426B2, “Bifunctional degraders of hematopoietic progenitor kinase and therapeutic uses thereof” (Nurix Therapeutics, Inc., priority 2021, dated 2024).

What is called DC50 is the midpoint of the concentration-degradation curve. What is called Dmax is the largest share of the target that was removed.

The assay deals with T1, HPK1 (Homo sapiens, UniProt Q92918).
T1 construct: A HiBiT tag was introduced by CRISPR on the N terminus of HPK1 in Jurkat cells; host or cells: Jurkat cells (ATCC TIB-152), monoclonal line with CRISPR knock-in of HiBiT at the endogenous HPK1 locus
T1 sequence (Q92918 whole entry): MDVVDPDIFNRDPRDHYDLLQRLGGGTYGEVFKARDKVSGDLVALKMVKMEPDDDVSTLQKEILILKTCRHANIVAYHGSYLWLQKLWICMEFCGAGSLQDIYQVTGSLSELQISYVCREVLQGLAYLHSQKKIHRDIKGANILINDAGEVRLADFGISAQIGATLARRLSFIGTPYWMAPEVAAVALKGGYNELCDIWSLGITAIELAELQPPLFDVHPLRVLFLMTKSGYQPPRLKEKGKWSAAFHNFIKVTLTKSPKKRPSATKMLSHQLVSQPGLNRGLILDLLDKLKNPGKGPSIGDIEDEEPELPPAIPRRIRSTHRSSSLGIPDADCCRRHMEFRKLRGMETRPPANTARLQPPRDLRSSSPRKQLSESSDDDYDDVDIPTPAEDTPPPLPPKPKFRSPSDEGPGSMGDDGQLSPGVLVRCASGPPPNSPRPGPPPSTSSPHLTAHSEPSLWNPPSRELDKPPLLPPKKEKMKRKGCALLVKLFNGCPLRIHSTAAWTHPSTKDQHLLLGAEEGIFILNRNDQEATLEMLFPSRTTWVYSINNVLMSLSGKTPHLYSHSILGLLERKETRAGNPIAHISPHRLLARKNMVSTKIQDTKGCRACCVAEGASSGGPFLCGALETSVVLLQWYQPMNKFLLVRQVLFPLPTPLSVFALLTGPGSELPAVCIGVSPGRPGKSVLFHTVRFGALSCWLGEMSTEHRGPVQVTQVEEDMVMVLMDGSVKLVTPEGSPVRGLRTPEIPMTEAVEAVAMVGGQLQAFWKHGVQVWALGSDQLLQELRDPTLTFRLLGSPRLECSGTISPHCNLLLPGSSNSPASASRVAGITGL
Briefly: HPK1 Cellular HiBit Degradation Assay. The format is cell-based. The following applies: HiBiT HPK1 Jurkat cells, 24 hrs; for DC50: concentration at which 50% of HPK1 was remaining, read-out: DC50 Category; for Dmax: Jurkat, read-out: Dmax Category. The method in brief: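 HPK1 levels are read by HiBiT luminescence after 24 h exposure of HiBiT-knock-in Jurkat cells to compound at 10 uM–0.1 nM final (11 points). Relative to DMSO (100%), DC50 is the concentration leaving 50% HPK1 from a variable-slope fit, and Dmax is 100 minus minimum remaining. Viability checked in-plate.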

Setting [1] is: maximum degradation vs DMSO vehicle control.

Consider `CC(C)n1cnc2cc(-c3ccc4c(c3)N([C@H]3C[C@@H](N5CCCCC5)C3)C(=O)C43CCN(C(=O)C[C@@H]4CCN(C(=O)[C@H]5CC[C@@H](Nc6cccc7c6C(=O)N(C6CCC(=O)NC6=O)C7=O)CC5)C4)CC3)nc(NC3CC3)c21` (mixture of isomers) [Example 35, 2-[(3RS)-2,6-dioxopiperidin-3-yl]-4-{[(1R,4R)-4-[(3S)-3-(2-{6-[4-(cyclopropylamino)-3-(propan-2-yl)-3H-imidazo[4,5-c]pyridin-6-yl]-2-oxo-1-[(1S,3S)-3-(piperidin-1-yl)cyclobutyl]-1,2-dihydrospiro[indole-3,4′-piperidin]-1′-yl}-2-oxoethyl)pyrrolidine-1-carbonyl]cyclohexyl]amino}-2,3-dihydro-1H-isoindole-1,3-dione], for which the DC50 lay within 500 to 1000 nM. Further, the maximal degradation (Dmax) under setting [1] was 50 to 70%.
The matching figures for `Cc1cc(F)c(Nc2nc(-c3ccc4c(c3)N([C@H]3C[C@@H](N5CCCCC5)C3)C(=O)C43CCN(C(=O)C4=CCN(C(=O)[C@H]5CC[C@H](Nc6cccc7c6C(=O)N(C6CCC(=O)NC6=O)C7=O)CC5)CC4)CC3)cc3ncn(C(C)C)c23)cc1C(=O)NC(C)C` (mixture of isomers) [Example 36, 4-fluoro-2-methyl-5-{[6-(2-oxo-1′-{1-[(1R,4R)-4-({2-[(3RS)-2,6-dioxopiperidin-3-yl]-1,3-dioxo-2,3-dihydro-1H-isoindol-4-yl}amino)cyclohexanecarbonyl]-1,2,3,6-tetrahydropyridine-4-carbonyl}-1-[(1S,3S)-3-(piperidin-1-yl)cyclobutyl]-1,2-dihydrospiro[indole-3,4′-piperidin]-6-yl)-3-(propan-2-yl)-3H-imidazo[4,5-c]pyridin-4-yl]amino}-N-(propan-2-yl)benzamide]: 100 to 500 nM and 50 to 70%.
Taken in the same sequence, the figures for `Cc1cc(F)c(Nc2nc(-c3ccc4c(c3)N([C@H]3C[C@@H](N5CCCCC5)C3)C(=O)C43CCN(C(=O)C4=CCN(C(=O)C5CCN(c6ccc7c(c6)C(=O)N(C6CCC(=O)NC6=O)C7=O)CC5)CC4)CC3)cc3ncn(C(C)C)c23)cc1C(=O)NC(C)C` (mixture of isomers) [Example 37, 5-[(6-{1′-[1-(1-{2-[(3RS)-2,6-dioxopiperidin-3-yl]-1,3-dioxo-2,3-dihydro-1H-isoindol-5-yl}piperidine-4-carbonyl)-1,2,3,6-tetrahydropyridine-4-carbonyl]-2-oxo-1-[(1S,3S)-3-(piperidin-1-yl)cyclobutyl]-1,2-dihydrospiro[indole-3,4′-piperidin]-6-yl}-3-(propan-2-yl)-3H-imidazo[4,5-c]pyridin-4-yl)amino]-4-fluoro-2-methyl-N-(propan-2-yl)benzamide] were 100 to 500 nM and 50 to 70%.
Turning to `CC(C)n1cnc2cc(-c3ccc4c(c3)N([C@H]3C[C@@H](N5CCCCC5)C3)C(=O)C43CCN(C(=O)C4C5CN(C(=O)C6CCN(c7ccc(C8CCC(=O)NC8=O)cn7)CC6)CC54)CC3)nc(NC3CC3)c21` (mixture of isomers) [Example 38, (3RS)-3-(6-{4-[6-({6-[4-(cyclopropylamino)-3-(propan-2-yl)-3H-imidazo[4,5-c]pyridin-6-yl]-2-oxo-1-[(1S,3S)-3-(piperidin-1-yl)cyclobutyl]-1,2-dihydrospiro[indole-3,4′-piperidin]-1′-yl}carbonyl)-3-azabicyclo[3.1.0]hexane-3-carbonyl]piperidin-1-yl}pyridin-3-yl)piperidine-2,6-dione], the DC50 lay within 100 to 500 nM. For the same compound, under setting [1], the Dmax fell in the range of 50 to 70%.
The matching figures for `CC(C)n1cnc2cc(-c3ccc4c(c3)N([C@H]3C[C@@H](N5CCCCC5)C3)C(=O)C43CCN(C(=O)C4C5CN(C(=O)C6CCN(c7ccc(C8CCC(=O)NC8=O)cn7)CC6)CC54)CC3)nc(Nc3ccccc3F)c21` (mixture of isomers) [Example 39, (3RS)-3-[6-(4-{6-[(6-{4-[(2-fluorophenyl)amino]-3-(propan-2-yl)-3H-imidazo[4,5-c]pyridin-6-yl}-2-oxo-1-[(1S,3S)-3-(piperidin-1-yl)cyclobutyl]-1,2-dihydrospiro[indole-3,4′-piperidin]-1′-yl)carbonyl]-3-azabicyclo[3.1.0]hexane-3-carbonyl}piperidin-1-yl)pyridin-3-yl]piperidine-2,6-dione]: less than 100 nM and more than 85%.
Taken in the same sequence, the figures for `CC(C)n1cnc2cc(-c3ccc4c(c3)N([C@H]3C[C@@H](N5CCCCC5)C3)C(=O)C43CCN(C(=O)c4ccc(C(=O)N5CCN(c6ccc(C7CCC(=O)NC7=O)cc6)CC5)cc4)CC3)nc(Nc3ccccc3F)c21` (mixture of isomers) [Example 40, (3RS)-3-[4-(4-{4-[(6-{4-[(2-fluorophenyl)amino]-3-(propan-2-yl)-3H-imidazo[4,5-c]pyridin-6-yl}-2-oxo-1-[(1S,3S)-3-(piperidin-1-yl)cyclobutyl]-1,2-dihydrospiro[indole-3,4′-piperidin]-1′-yl)carbonyl]benzoyl}piperazin-1-yl)phenyl]piperidine-2,6-dione] were 500 to 1000 nM and 50 to 70%.
Consider `CC(C)n1cnc2cc(-c3ccc4c(c3)N([C@H]3C[C@@H](N5CCCCC5)C3)C(=O)C43CCN(C(=O)c4ccc(C(=O)N5CCN(c6ccc7c(c6)C(=O)N(C6CCC(=O)NC6=O)C7=O)CC5)cc4)CC3)nc(Nc3ccccc3F)c21` (mixture of isomers) [Example 41, 2-[(3RS)-2,6-dioxopiperidin-3-yl]-5-(4-{4-[(6-{4-[(2-fluorophenyl)amino]-3-(propan-2-yl)-3H-imidazo[4,5-c]pyridin-6-yl}-2-oxo-1-[(1S,3S)-3-(piperidin-1-yl)cyclobutyl]-1,2-dihydrospiro[indole-3,4′-piperidin]-1′-yl)carbonyl]benzoyl}piperazin-1-yl)-2,3-dihydro-1H-isoindole-1,3-dione], for which the DC50 lay within 100 to 500 nM. Besides, under setting [1], the greatest degradation seen (Dmax) was more than 85%.
Taken in the same sequence, the figures for `CC(C)n1cnc2cc(-c3ccc4c(c3)N([C@H]3C[C@@H](N5CCCCC5)C3)C(=O)C43CCN(C(=O)c4ccc(C(=O)N5CCN(c6ccc7c(c6)C(=O)N(C6CCC(=O)NC6=O)C7=O)CC5)cc4)CC3)nc(Nc3ccncc3F)c21` (mixture of isomers) [Example 42, 2-[(3RS)-2,6-dioxopiperidin-3-yl]-5-(4-{4-[(6-{4-[(3-Fluoropyridin-4-yl)amino]-3-(propan-2-yl)-3H-imidazo[4,5-c]pyridin-6-yl}-2-oxo-1-[(1S,3S)-3-(piperidin-1-yl)cyclobutyl]-1,2-dihydrospiro[indole-3,4′-piperidin]-1′-yl)carbonyl]benzoyl}piperazin-1-yl)-2,3-dihydro-1H-isoindole-1,3-dione] were 500 to 1000 nM and 50 to 70%.
Consider `CC(C)n1cnc2cc(-c3ccc4c(c3)N([C@H]3C[C@@H](N5CCCCC5)C3)C(=O)C43CCN(C(=O)c4ccc(C(=O)NC5CCN(c6ccc7c(c6)C(=O)N(C6CCC(=O)NC6=O)C7=O)CC5)cc4)CC3)nc(NC3CC3)c21` (mixture of isomers) [Example 43, 4-({6-[4-(cyclopropylamino)-3-(propan-2-yl)-3H-imidazo[4,5-c]pyridin-6-yl]-2-oxo-1-[(1S,3S)-3-(piperidin-1-yl)cyclobutyl]-1,2-dihydrospiro[indole-3,4′-piperidin]-1′-yl}carbonyl)-N-(1-{2-[(3RS)-2,6-dioxopiperidin-3-yl]-1,3-dioxo-2,3-dihydro-1H-isoindol-5-yl}piperidin-4-yl)benzamide], for which the DC50 lay in the range of 500 to 1000 nM. Further, the Dmax under setting [1] was in the range of 50 to 70%.
As for `CC(C)n1cnc2cc(-c3ccc4c(c3)N([C@H]3C[C@@H](N5CCCCC5)C3)C(=O)C43CCN(C(=O)c4ccc(C(=O)NC5CCN(c6ccc7c(c6)C(=O)N(C6CCC(=O)NC6=O)C7=O)CC5)cc4)CC3)nc(NC3CC3)c21` (mixture of isomers) [Example 44], the DC50 was 500 to 1000 nM. Under setting [1], the “Dmax Category” value was “B (B: >70%-<85%)”.
`CC(C)n1cnc2cc(-c3ccc4c(c3)N([C@H]3C[C@@H](N5CCCCC5)C3)C(=O)C43CCN(C(=O)c4ccc(C(=O)N5CCN(c6ccc7c(c6)C(=O)N(C6CCC(=O)NC6=O)C7=O)CC5)nc4)CC3)nc(Nc3ccccc3F)c21` (mixture of isomers) [Example 45, 2-[(3RS)-2,6-dioxopiperidin-3-yl]-5-(4-{5-[(6-{4-[(2-fluorophenyl)amino]-3-(propan-2-yl)-3H-imidazo[4,5-c]pyridin-6-yl}-2-oxo-1-[(1S,3S)-3-(piperidin-1-yl)cyclobutyl]-1,2-dihydrospiro[indole-3,4′-piperidin]-1′-yl)carbonyl]pyridine-2-carbonyl}piperazin-1-yl)-2,3-dihydro-1H-isoindole-1,3-dione]: the DC50 lay in the range of 100 to 500 nM. Also, the Dmax under setting [1] is 70 to 85%.
The matching figures for `CC(C)n1cnc2cc(-c3ccc4c(c3)N([C@H]3C[C@@H](N5CCCCC5)C3)C(=O)C43CCN(C(=O)C4CCN(C[C@H]5CC[C@H](C(=O)N6CCc7cc(C8CCC(=O)NC8=O)ccc7C6)CC5)CC4)CC3)nc(Nc3ccccc3F)c21` (mixture of isomers) [Example 46]: 100 to 500 nM and more than 85%.
Taken in the same sequence, the figures for `CC(C)n1cnc2cc(-c3ccc4c(c3)N([C@H]3C[C@@H](N5CCCCC5)C3)C(=O)C43CCN(C(=O)C4CCN(C(=O)[C@@H]5CCN(c6ccc(C7CCC(=O)NC7=O)cn6)C5)CC4)CC3)nc(Nc3ccccc3F)c21` (mixture of isomers) [Example 47, (3RS)-3-{6-[(3R)-3-{4-[(6-{4-[(2-fluorophenyl)amino]-3-(propan-2-yl)-3H-imidazo[4,5-c]pyridin-6-yl}-2-oxo-1-[(1S,3S)-3-(piperidin-1-yl)cyclobutyl]-1,2-dihydrospiro[indole-3,4′-piperidin]-1′-yl)carbonyl]piperidine-1-carbonyl}pyrrolidin-1-yl]pyridin-3-yl}piperidine-2,6-dione] were 100 to 500 nM and 50 to 70%.
